Experimental findings from patent US8609810B2, “Methylglyoxal-scavenging compounds and their use for the prevention and treatment of pain and/or hyperalgesia” (Ruprecht-Karls-Universitat Heidelberg, priority 2009, dated 2013) are described below.

Where no end group is shown, it is not given here.

One data set has as its system healthy wild-type mice. Nature of the data set: Exogenous methylglyoxal induces thermal hyperalgesia in vivo (hot plate). The method, then:
Hyperalgesia was studied using the hot-plate assay with an electronically controlled hot-plate analgesia meter (Columbus Instructments, Columbus, Ohio) at 50° C.. Each mouse was removed from the hot plate when a jumping escape response occurred or hind paws were licked, or after a maximal cut-off time of 60 seconds. […] Three measurements were taken per animal at each of the specified time points and averaged. The difference in latency times between control and treated animals, was calculated as a measure of hyperalgesia. Healthy wild-type mice (Male; 10-12 weeks) were treated with various concentrations of methylglyoxal (0.7 μM-700 μM) by intravenous injection as 0.9% NaCl solution. Control groups were injected with 0.9% NaCl solution. After 3 hrs incubation time, hyperalgesia was assessed.

Data set [1] can be described thus: Plasma methylglyoxal measurement after i.v. injection of MG (HPLC). It counts as in vivo, mice. The following applies: male, wild-type, mouse, iv, 5 μg MG i.v., within 10 min, read-out: plasma MG levels. The method, then:
(B) 5 μg ([…]) MG was administered by i. v. injection as 0.9% NaCl solution to male healthy wild-type mice (10-12 weeks old) and MG-plasma concentrations were determined by HPLC at time point Oh, 10 min, 30 min, 1 h and 3 h. Data represent mean±SD (n=3 per time point).
(§1) The concentration of methylglyoxal in mouse plasma samples was determined by derivatization with 1,2-diamino-4,5-dimethoxybenezene using a previously described method. Blood samples were drawn into EDTA containing tubes from the retrobulbar vessels at time of sacrifice and centrifuged (2000 g; 5 mins). Plasma was removed and acidified with 10% TCA (0.1 ml). Samples were either analyzed immediately or stored at −80° C.

A further data set concerns the target T1, glyoxalase-I (Mus musculus, UniProt Q9CPU0).
T1 construct: Healthy wild-type mice (Male); from tissue
T1 sequence (Q9CPU0 2-184 limits assumed): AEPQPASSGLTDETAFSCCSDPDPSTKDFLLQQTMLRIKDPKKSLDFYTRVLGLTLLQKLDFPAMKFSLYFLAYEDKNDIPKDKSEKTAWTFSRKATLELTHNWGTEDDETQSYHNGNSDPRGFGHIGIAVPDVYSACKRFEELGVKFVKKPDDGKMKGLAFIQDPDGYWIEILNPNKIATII
Nature of the data set: In vivo inhibition of Glyoxalase I in healthy wild-type mice. The procedure: (A) Inhibition of Glyoxalase I by the cell permeable inhibitor S-p-Bromobenzylglutathione Cyclopentyl diester in male healthy wild-type mice (10-12 weeks old). Hyperalgesia was assessed by the hot plate assay at day 0 before application of the inhibitor. Thereafter, consecutive assessments of thermal hyperalgesia were made at selected time points (black circles), at which some mice also were sacrificed and plasma isolated for the determination of MG concentration (open circles). Data represent mean±SD (n=3 per time point). Different approaches were utilized to verify the hypothesized threshold-dependent effect of the MG/glyoxalase-system on hyperalgesia.
(§2) Hyperalgesia was studied using the hot-plate assay with an electronically controlled hot-plate analgesia meter (Columbus Instructments, Columbus, Ohio) at 50° C.. Each mouse was removed from the hot plate when a jumping escape response occurred or hind paws were licked, or after a maximal cut-off time of 60 seconds. […] Three measurements were taken per animal at each of the specified time points and averaged. The difference in latency times between control and treated animals, was calculated as a measure of hyperalgesia.
as §1
Healthy wild-type mice (Male; 10-12 weeks) were pretreated for 48 hrs with 50 μg/g (i.p) of the cell permeable Glyoxalase I inhibitor, S-p-Bromobenzylglutathioine Cyclopentyl diester. After 48 hrs, hyperalgesia was assessed. Mice were then treated every 2nd day for a period of 15 days, during which consecutive assessments of hyperalgesia were made. At selected time points, mice sacrificed, and plasma isolated for determination of methylglyoxal concentration.

For data set [2], the system named is diabetes induced hyperalgesia in diabetic wild-type mice. Briefly: Diabetes induced hyperalgesia, hot-plate assay in STZ-induced diabetic wild-type mice. It counts as in vivo. The method, then: Diabetic wildtype mice (Male; 18 wks) were injected with either 1 mg GERP or GEAP i.p. Following 1 day of treatment with either peptide, treatment was discontinued, after which consecutive measurements of hyperalgesia were performed to determine biological half-life of the peptide. This was determined to be ca. 80 hrs. Data represent the mean±SEM (N=10), ***P<0.0001, **P<0.001, *P<0.05, NSP>0.05 vs. GERP or GEAP control at respective time point; 000P<0.0001, NSP>0.05 vs. day 0.
Diabetes was induced by i.p. administration of STZ at 60 mg/kg, freshly dissolved in sterile sodium citrate (0.05M, pH4.5) on 6 subsequent days. Control animals received sodium citrate only. Diabetes was verified 16-25 days later by measurement of blood glucose levels in samples from the tail vein using ACCU-CHEK glucose sticks and a conventional Accutrend glucometer. In the first 2 weeks following the onset of diabetes, blood glucose was measured daily. If glucose levels occasionally recovered, an additional STZ injection was given on day 25-27. More than 90% of mice became diabetic within the first 4 weeks and were used throughout the experiment. As soon as blood glucose increased above 300 mg/dl, individual supplementation with 1-2 U Insulin Semilenta (40 U/ml) was started. Once glucose levels had stabilized, blood glucose was determined at least once a week for the first 2 months, and thereafter every second week. Tight blood glucose control kept individual blood glucose level stable throughout the experiments. At the end of the experiments, mice were sacrificed with CO2, and both sciatic nerves dissected, weighed and snap-frozen in liquid nitrogen.
as §2
To determine the effect of GERP on diabetes induced hyperalgesia, STZ-induced diabetic wild-type mice (Male; 18 wks) were injected intraperitioneal with either 1 mg of GERP001 or GEAP. After 24 hrs, hyperalgesia was assessed by hotplate assay.
(Hot-plate and tail-flick tests time the reaction to a heat stimulus.)

The test system of data set [3] is methylglyoxal-induced hyperalgesia in healthy wild-type mice. Nature of the data set: Methylglyoxal-induced hyperalgesia, hot-plate assay (in vivo scavenging of methylglyoxal). The following applies: 1 mg i.p., MG 70 μM, FIG. 6A. The procedure:
Healthy wildtype mice (10-12 weeks), were injected with 1 mg GERP (≡1.096×1015 Arg residues) or control peptide GEAP; i.p. 30 mins prior to injection with methylglyoxal (MG; 70 μM). Hyperalgesia was assessed 3 hrs after i.p injection by hot-plate assay. Data represent mean±SEM (N=10). GERP reduced methylglyoxal-induced hyperalgesia by ca. 60% in healthy wildtype mice, whereas the control peptide had no effect, showing that scavanging of methylglyoxal reduced hyperalgesia.
as §2
A synthetic peptide, GERP001, containing ten arginine residues per molecule act as an effective in vivo scavenger of methylglyoxal was designed in house and synthesized (GenWay Biotech, Inc. San Diego, Calif., USA). […] Hyperalgesia was assessed 3 hrs after administration of methylglyoxal.

Turning to `CC(=O)C=O` [MG, 2-oxo-propanal], the “persistence of MG-induced changes resulting in hyperalgesia” value in the data set on healthy wild-type mice (after MG application, data not shown) is given as “more than 3 hours”. In addition, the “plasma MG level needed for dose-dependent hyperalgesia (threshold concentration)” value with healthy wild-type mice (plasma MG at 15 min after MG application) is reported as “exceeded 600 nM”. Further, the “induction of heat hyperalgesia” value with healthy wild-type mice (systemic (i.v.) MG, 3 h after MG injection, hot plate) was “significant and dose-dependent induction of heat hyperalgesia”. Also, the concentration at 10 min in data set [1] was above 800 nM.
Regarding `NC(CCC(=O)NC(CSCc1ccc(Br)cc1)C(=O)NCC(=O)OC1CCCC1)C(=O)OC1CCCC1` (stereo not drawn) [S-p-Bromobenzylglutathione Cyclopentyl diester], on glyoxalase-I (3 days after continuous inhibitor administration, injected every second day), the glyoxalase-I enzymatic activity entry is listed as “fully inhibited”. The MG plasma concentration entry at glyoxalase-I (6 days after initiation of treatment) is “exceeded 600 nM”. For the same compound, the thermal hyperalgesia entry on glyoxalase-I (6 days after initiation of treatment, hot plate) is on record as “significant thermal hyperalgesia”.
For the compound “GEAP: a control peptide in which the arginine residues were substituted for alanine (HHHHHHGGGGGEPGEPGEPGEPGEPGEPGEPGEPGEPGEP; GEAP motif containing peptide)”, in data set [2] (mice after 8 weeks of diabetes with manifest hyperalgesia, 1 mg i.p., FIG. 6C), the “effect on thermal hyperalgesia in diabetic mice” value is given as “no effect”. Moreover, in data set [3], the “effect on thermal hyperalgesia in MG-treated healthy wild-type mice” value is recorded as “no effect”.
For “HHHHHHGGGGGERPGERPGERPGERPGERPGERPGERPGERPGERPGERP [GERP001]”, the “physiological / biological effective half-life” value in data set [2] (diabetic mice, 1 mg i.p., after treatment discontinued, regression analysis, linear decay model) is listed as “ca. 80 hrs”. In data set [2] (preliminary experiments, data fitted to an exponential decay (R2=0.9734)), the “biological effective half-life (preliminary experiments)” value is given as “ca. 13 hrs”. For the same compound, the “half-life of the effect of a single injection” value in data set [2] (single injection (1 mg)) is 80 h.
